The structures appear in SMILES notation. pIC50: −log10 of the molar value.

The test system of one assay is MES-SA. The assay can be described thus: Resistant factor, ratio of IC50 for doxorubicin-resistant human MES-SA/Dx5 cells to IC50 for doxorubicin-sensitive human MES-SA cells. It counts as functional.
Another assay relates to HCT-116. The assay can be described thus: Cytotoxicity against human HCT116 cells assessed as inhibition of cell proliferation after 72 hrs by MTT assay. It counts as functional, cell-based. The conditions noted are these: HCT-116, 72 h.
The nature of assay [1]: Cytotoxicity against human MES-SA/Dx5 cells assessed as inhibition of cell proliferation after 72 hrs by MTT assay. The assay is classed as functional, cell-based. The conditions noted are these: MES-SA/Dx5, 72 h.
Assay [2] in a line: Cytotoxicity against human MES-SA cells assessed as inhibition of cell proliferation after 72 hrs by MTT assay. The assay is classed as functional, cell-based.

`CN(C)CCn1cc2c([N+](=O)[O-])ccc3c2c1-c1ccccc1S3`: in the assay with MES-SA, the “Ratio IC50” value is listed as 0.38. Moreover, the negative logarithm of the IC50 (pIC50) in the assay with HCT-116 was 5.68; in assay [1] it was 5.77; in assay [2], 5.35.

In the case of `CCN(CC)CCn1cc2c([N+](=O)[O-])ccc3c2c1-c1ccccc1S3`, in the assay on MES-SA, the “Ratio IC50” value is on record as 2.63. The pIC50 in the assay with HCT-116 was 5.67; in assay [1] it was 5.29; in assay [2], 5.71.

Take `O=[N+]([O-])c1ccc2c3c(n(CCN4CCCC4)cc13)-c1ccccc1S2`: the “Ratio IC50” value in the assay on MES-SA was 1.25. Further, the pIC50 with HCT-116 was 5.94; in assay [1], 5.67; in assay [2], 5.76.

For `O=[N+]([O-])c1ccc2c3c(n(CCN4CCCCC4)cc13)-c1ccccc1S2`, in the assay on MES-SA, the “Ratio IC50” value turned out to be 0.55. Also, the pIC50 with HCT-116 was 5.09; in assay [1], 5.04; in assay [2], 4.78.

As for `CN(C)CCn1cc2c([N+](=O)[O-])ccc3c2c1-c1ccccc1S3(=O)=O`, the “Ratio IC50” value in the assay on MES-SA was 1.47. Further, the pIC50 is 5.27 with HCT-116, 5.29 in assay [1] and 5.45 in assay [2].

Consider `CCN(CC)CCn1cc2c([N+](=O)[O-])ccc3c2c1-c1ccccc1S3(=O)=O`, for which, in the assay on MES-SA, the “Ratio IC50” value was determined as 0.66. Besides, the values for the pIC50 (with HCT-116; in assay [1]; in assay [2]) were 5.22, 5.58 and 5.40, respectively.

Consider `O=[N+]([O-])c1ccc2c3c(n(CCN4CCCC4)cc13)-c1ccccc1S2(=O)=O`, for which the “Ratio IC50” value in the assay on MES-SA is 0.63. Besides, the negative-log IC50 (pIC50) with HCT-116 was 5.15; in assay [1] it was 5.84; in assay [2] it was 5.64.

Consider `O=[N+]([O-])c1ccc2c3c(n(CCN4CCCCC4)cc13)-c1ccccc1S2(=O)=O`, for which the “Ratio IC50” value in the assay on MES-SA is recorded as 0.64. The pIC50 in the assay with HCT-116 was 5.26; in assay [1], 5.59; in assay [2], 5.40.

On to `CCN(CC)CCNc1ccc2c3c(n(CCN(CC)CC)cc13)-c1ccccc1S2(=O)=O`, for which the pIC50 in the assay with HCT-116 is 4.22; in assay [1] it was under 4.00; in assay [2], 4.17.

In the case of `COc1cccc2c1C(=O)c1c(O)c3c(c(O)c1C2=O)C[C@@](O)(C(=O)CO)C[C@@H]3O[C@H]1C[C@H](N)[C@H](O)[C@H](C)O1` [DOXORUBICIN], the “Ratio IC50” value in the assay on MES-SA was 79.93. The figures for the pIC50 (with HCT-116; in assay [1]; in assay [2]) were 6.80, 5.62 and 7.52, respectively.

On to `O=C1c2c(O)ccc(O)c2C(=O)c2c(NCCNCCO)ccc(NCCNCCO)c21` [MITOXANTRONE], for which, in the assay on MES-SA, the “Ratio IC50” value turned out to be 6.67. Moreover, the pIC50 in the assay with HCT-116 was 7.66; in assay [1] it was 7.10; in assay [2], 7.92.
